Bounds are passed on as bounds.

The IC50 is the midpoint of a concentration-inhibition curve. Usually inhibition in vivo stands for the drop in the measured response relative to a control, in per cent.

Sequence of Prostaglandin G/H synthase 1 (P23219 whole entry): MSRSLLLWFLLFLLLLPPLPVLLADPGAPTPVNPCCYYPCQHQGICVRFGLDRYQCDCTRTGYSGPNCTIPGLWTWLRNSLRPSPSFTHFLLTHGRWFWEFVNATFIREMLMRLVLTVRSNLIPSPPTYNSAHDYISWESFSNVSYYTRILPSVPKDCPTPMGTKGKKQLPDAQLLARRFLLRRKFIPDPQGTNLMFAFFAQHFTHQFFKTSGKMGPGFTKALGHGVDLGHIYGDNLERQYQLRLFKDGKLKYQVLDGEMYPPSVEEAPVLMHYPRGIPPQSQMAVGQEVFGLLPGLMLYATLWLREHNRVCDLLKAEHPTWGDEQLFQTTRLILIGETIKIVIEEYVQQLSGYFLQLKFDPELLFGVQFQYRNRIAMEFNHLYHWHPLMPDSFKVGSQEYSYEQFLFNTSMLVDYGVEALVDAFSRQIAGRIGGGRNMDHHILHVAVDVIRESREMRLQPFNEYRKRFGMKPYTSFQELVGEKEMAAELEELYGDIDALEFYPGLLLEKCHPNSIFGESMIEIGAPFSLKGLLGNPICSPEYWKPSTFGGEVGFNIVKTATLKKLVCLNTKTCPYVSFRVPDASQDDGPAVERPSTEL

The first test addresses Prostaglandin G/H synthase 1 (Homo sapiens, UniProt P23219). The experiment in a line: Inhibitory activity against human recombinant Prostaglandin G/H synthase 1.
With `COc1ccc(-c2cscc2-c2ccc(S(C)(=O)=O)cc2)cc1`, the 50% inhibitory concentration (IC50) was 0.9 µM.
With `CS(=O)(=O)c1ccc(-c2cscc2-c2ccc(F)cc2)cc1`, the IC50 was above 1000 µM.
Regarding `COc1ccc(-c2cscc2-c2ccc(S(N)(=O)=O)cc2)cc1F`, the IC50 came to 10 µM.
The same measure, in the same setting: the same measure for `CS(=O)(=O)c1ccc(-c2c(Br)sc(Br)c2-c2ccc(F)cc2)cc1`: above 1000 µM.
With `NS(=O)(=O)c1ccc(-c2cscc2-c2ccc(F)cc2)cc1`, the 50% inhibitory concentration (IC50) turned out to be 1.8 µM.
`CS(=O)(=O)c1ccc(-c2c(-c3ccc(F)cc3)csc2Br)cc1`: the IC50 is above 100 µM.
Regarding `COc1ccc(-c2cscc2-c2ccc(S(C)(=O)=O)cc2)cc1F`, the concentration for half-maximal inhibition (IC50) is above 100 µM.
Consider `CS(=O)(=O)c1ccc(-c2csc(Br)c2-c2ccc(F)cc2)cc1`, for which the half-inhibitory concentration (IC50) turned out to be 5.2 µM.

In another test the target is T1, Prostaglandin G/H synthase 2 (Homo sapiens, UniProt P35354).
T1 sequence (P35354 whole entry): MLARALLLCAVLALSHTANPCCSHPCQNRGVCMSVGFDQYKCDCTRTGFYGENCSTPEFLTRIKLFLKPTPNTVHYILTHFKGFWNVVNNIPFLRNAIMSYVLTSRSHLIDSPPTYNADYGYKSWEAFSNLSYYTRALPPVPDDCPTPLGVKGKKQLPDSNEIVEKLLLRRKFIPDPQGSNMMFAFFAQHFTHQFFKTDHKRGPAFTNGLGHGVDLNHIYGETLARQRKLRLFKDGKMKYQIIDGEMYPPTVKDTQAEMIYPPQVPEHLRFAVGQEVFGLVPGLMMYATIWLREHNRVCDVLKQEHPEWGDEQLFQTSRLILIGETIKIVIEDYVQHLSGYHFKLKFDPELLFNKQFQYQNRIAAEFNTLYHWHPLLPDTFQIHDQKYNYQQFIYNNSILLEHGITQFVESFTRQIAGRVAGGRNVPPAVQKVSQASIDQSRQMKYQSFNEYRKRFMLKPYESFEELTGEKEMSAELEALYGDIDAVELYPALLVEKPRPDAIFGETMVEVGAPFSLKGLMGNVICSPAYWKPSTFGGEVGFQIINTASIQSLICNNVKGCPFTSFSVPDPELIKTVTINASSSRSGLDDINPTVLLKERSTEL
Description: Inhibitory activity against human recombinant Prostaglandin G/H synthase 2
`COc1ccc(-c2cscc2-c2ccc(S(C)(=O)=O)cc2)cc1` displayed a concentration for half-maximal inhibition (IC50) of 0.05 µM.
The compound `CS(=O)(=O)c1ccc(-c2cscc2-c2ccc(F)cc2)cc1` gave an IC50 of 0.08 µM.
Compound `COc1ccc(-c2cscc2-c2ccc(S(N)(=O)=O)cc2)cc1F` showed an IC50 of 0.009 µM.
On the same count and under the same terms, as for `CS(=O)(=O)c1ccc(-c2c(Br)sc(Br)c2-c2ccc(F)cc2)cc1`, the figure is 0.7 µM.
With `NS(=O)(=O)c1ccc(-c2cscc2-c2ccc(F)cc2)cc1`, the half-maximal inhibitory concentration (IC50) came out at 0.008 µM.
In the case of `CS(=O)(=O)c1ccc(-c2c(-c3ccc(F)cc3)csc2Br)cc1`, the half-maximal inhibitory concentration (IC50) is above 100 µM.
As for `COc1ccc(-c2cscc2-c2ccc(S(C)(=O)=O)cc2)cc1F`, the IC50 was 0.03 µM.

Another test relates to Rattus norvegicus. As to the kind of experiment: Compound was tested for its ability to inhibit carrageenan rat foot edema at 10 mg/kg dose. The test is classed as functional. For orientation: The carrageenan paw model is a standard test of acute inflammation.
Compound `CS(=O)(=O)c1ccc(-c2cscc2-c2ccc(F)cc2)cc1` had an inhibition in vivo at 10 mg/kg of 33%.
Still for that read-out and setting: as for `NS(=O)(=O)c1ccc(-c2cscc2-c2ccc(F)cc2)cc1`, the figure is 46.5%.
The same measure, in the same setting: as for `CS(=O)(=O)c1ccc(-c2csc(Br)c2-c2ccc(F)cc2)cc1`, the figure is 30%; as for `CS(=O)(=O)c1ccc(-c2cc(Br)sc2-c2ccc(F)cc2)cc1` [DUP-697], 57%.

These data come from ChEMBL document CHEMBL1128095, “3,4-diarylthiophenes are selective COX-2 inhibitors” (Bioorg Med Chem Lett, 1995).
